Measured values published in ChEMBL document CHEMBL5465560, “Selectivity Literature for EUbOPEN Chemogenomic Library” (2024).
Blank lines part the entries; values can stand above or below the compound they belong to.

How the values were obtained:
[1] = biological target: T1, Serine/threonine-protein kinase DCLK2 (Homo sapiens) (UniProt Q8N568); conditions: at 10 µM
T1 sequence (whole entry): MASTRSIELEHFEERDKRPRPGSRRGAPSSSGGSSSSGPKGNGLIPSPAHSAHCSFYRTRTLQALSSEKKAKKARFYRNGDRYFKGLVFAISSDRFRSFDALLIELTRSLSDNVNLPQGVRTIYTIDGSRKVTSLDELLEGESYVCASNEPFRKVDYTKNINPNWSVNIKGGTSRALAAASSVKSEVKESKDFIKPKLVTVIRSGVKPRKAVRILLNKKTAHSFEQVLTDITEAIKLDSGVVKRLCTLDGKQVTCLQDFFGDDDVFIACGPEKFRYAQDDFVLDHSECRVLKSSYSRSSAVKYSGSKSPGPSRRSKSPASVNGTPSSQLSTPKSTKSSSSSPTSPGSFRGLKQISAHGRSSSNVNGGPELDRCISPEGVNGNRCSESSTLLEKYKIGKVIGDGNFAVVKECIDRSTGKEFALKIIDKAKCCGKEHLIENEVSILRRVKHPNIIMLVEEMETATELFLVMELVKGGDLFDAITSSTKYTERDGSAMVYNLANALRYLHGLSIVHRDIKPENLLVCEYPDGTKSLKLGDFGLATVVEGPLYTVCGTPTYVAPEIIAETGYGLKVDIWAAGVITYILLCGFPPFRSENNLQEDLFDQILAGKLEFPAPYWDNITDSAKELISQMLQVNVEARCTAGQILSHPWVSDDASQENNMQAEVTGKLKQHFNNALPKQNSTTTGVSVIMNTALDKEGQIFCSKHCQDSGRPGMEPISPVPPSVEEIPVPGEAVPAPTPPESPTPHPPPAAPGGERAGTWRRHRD

[2] = biological target: Rho-associated protein kinase 1 (Homo sapiens) (UniProt Q13464); experiment: Selectivity interaction (Ambit KINOMEscan and KiNATiv profiling in Jurkat cells) EUB0000090b ROCK1; type: cell-based; conditions: at 1 µM
Chain of Rho-associated protein kinase 1 (Homo sapiens) (Q13464 2-1354 limits assumed): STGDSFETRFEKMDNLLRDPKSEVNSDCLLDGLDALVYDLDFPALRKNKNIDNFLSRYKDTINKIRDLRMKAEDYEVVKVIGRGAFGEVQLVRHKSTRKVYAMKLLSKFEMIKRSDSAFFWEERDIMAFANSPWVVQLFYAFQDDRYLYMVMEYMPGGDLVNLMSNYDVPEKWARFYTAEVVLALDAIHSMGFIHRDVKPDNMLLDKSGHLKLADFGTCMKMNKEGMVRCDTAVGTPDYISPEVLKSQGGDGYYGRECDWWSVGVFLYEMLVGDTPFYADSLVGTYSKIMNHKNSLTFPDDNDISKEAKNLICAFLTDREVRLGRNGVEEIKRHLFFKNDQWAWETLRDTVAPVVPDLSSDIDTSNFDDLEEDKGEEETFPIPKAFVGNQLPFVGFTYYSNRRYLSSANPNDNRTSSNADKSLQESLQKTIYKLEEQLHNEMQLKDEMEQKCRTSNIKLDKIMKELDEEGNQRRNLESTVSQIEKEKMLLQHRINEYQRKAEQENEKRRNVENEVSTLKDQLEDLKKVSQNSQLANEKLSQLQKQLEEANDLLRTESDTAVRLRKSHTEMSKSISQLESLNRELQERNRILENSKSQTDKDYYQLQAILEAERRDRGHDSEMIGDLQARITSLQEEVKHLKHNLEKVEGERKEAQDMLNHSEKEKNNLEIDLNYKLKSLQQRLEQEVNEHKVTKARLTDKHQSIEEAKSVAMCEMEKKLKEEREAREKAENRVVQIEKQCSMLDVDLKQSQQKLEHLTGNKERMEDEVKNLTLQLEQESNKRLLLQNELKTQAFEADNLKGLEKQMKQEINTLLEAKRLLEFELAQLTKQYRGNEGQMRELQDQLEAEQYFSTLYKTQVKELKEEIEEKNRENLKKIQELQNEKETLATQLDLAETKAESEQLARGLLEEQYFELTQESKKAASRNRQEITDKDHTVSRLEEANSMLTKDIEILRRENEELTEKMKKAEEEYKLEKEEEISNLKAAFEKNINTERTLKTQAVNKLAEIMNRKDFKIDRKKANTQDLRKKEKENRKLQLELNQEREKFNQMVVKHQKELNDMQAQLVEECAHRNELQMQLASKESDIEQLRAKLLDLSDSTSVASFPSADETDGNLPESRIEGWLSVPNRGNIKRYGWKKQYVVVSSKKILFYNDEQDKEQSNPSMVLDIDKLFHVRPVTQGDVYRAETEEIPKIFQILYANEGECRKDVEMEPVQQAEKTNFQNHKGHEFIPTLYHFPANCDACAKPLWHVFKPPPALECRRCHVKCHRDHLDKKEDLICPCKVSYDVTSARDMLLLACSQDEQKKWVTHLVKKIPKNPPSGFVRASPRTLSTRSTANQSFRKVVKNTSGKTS

[3] = biological target: T2, Serine/threonine-protein kinase Chk1 (Homo sapiens) (UniProt O14757); experiment: Selectivity interaction (Kinase panel (literature)) EUB0001199aCl CHEK1; conditions: at 1 µM
T2 sequence (whole entry): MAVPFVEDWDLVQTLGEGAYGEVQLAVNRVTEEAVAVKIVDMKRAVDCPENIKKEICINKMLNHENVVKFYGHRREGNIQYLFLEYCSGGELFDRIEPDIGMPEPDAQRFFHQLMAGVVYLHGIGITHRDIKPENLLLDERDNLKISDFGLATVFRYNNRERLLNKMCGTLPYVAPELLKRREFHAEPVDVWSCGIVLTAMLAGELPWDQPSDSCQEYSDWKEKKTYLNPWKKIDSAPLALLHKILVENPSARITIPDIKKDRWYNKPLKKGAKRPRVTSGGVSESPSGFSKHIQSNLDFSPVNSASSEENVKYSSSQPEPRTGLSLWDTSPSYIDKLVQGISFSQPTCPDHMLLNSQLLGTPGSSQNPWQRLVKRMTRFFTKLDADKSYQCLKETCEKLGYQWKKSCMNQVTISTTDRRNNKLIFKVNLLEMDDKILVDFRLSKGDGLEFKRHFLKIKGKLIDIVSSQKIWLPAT

[4] = biological target: T3, Megakaryocyte-associated tyrosine-protein kinase (Homo sapiens) (UniProt P42679); experiment: Selectivity interaction (Kinase panel (Invitrogen)) EUB0000639a MATK; conditions: at 200 nM
T3 sequence (whole entry): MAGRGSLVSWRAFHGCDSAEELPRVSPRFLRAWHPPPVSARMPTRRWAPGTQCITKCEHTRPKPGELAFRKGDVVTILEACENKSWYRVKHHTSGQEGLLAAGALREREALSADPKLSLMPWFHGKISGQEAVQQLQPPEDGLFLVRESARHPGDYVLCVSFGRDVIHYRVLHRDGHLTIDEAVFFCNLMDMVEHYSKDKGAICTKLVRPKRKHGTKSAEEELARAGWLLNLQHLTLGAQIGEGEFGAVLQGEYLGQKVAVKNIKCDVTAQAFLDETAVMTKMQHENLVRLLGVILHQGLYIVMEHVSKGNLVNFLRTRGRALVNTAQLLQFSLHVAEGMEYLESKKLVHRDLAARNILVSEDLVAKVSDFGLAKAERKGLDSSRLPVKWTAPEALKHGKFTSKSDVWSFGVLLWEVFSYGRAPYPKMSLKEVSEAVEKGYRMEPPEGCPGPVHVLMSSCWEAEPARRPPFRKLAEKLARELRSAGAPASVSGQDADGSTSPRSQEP

[5] = biological target: Serine/threonine-protein kinase 33 (Homo sapiens) (UniProt Q9BYT3); experiment: Selectivity interaction (KinomeScan (DiscoverX)) EUB0000666a STK33; conditions: at 10 µM
Chain of Serine/threonine-protein kinase 33 (Homo sapiens) (Q9BYT3 whole entry, looked up, the tested form may be a part): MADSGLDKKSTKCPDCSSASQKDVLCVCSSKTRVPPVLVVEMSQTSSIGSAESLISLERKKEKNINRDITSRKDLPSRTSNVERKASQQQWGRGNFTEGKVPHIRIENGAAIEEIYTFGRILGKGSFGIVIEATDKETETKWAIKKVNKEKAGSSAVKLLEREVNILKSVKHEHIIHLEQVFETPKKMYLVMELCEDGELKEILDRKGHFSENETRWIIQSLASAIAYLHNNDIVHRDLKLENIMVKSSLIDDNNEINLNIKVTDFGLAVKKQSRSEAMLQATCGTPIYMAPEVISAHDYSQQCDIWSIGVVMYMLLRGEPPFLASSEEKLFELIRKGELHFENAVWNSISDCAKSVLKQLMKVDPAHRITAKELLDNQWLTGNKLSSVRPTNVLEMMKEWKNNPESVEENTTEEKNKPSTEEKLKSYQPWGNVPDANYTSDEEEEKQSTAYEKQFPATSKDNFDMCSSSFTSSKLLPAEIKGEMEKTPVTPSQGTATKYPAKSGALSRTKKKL

[6] = biological target: T4, Ankyrin repeat and protein kinase domain-containing protein 1 (Homo sapiens) (UniProt Q8NFD2); experiment: Selectivity interaction (KinomeScan (DiscoverX)) EUB0000092b ANKK1; conditions: at 10 µM
T4 sequence (whole entry): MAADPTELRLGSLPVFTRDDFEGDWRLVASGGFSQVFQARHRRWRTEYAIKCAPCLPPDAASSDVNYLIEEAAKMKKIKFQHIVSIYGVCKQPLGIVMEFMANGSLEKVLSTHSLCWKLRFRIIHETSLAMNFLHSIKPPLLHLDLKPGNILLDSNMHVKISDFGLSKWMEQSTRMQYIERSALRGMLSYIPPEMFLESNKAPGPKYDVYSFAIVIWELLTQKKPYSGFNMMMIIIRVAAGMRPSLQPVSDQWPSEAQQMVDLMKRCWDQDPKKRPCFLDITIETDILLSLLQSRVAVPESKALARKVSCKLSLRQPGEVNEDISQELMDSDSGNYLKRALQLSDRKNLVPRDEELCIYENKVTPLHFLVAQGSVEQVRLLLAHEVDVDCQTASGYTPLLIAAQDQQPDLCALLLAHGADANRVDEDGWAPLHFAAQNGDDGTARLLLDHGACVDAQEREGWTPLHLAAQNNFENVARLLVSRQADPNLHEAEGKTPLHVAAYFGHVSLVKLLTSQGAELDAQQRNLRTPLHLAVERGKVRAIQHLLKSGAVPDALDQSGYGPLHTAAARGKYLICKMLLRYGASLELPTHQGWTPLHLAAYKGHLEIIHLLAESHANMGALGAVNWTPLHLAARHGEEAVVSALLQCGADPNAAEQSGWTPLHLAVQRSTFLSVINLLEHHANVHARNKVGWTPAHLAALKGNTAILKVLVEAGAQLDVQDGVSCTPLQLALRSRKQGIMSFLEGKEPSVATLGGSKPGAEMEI

Compound: CN(C)C/C=C/C(=O)Nc1ccc(C(=O)N2CCCC(Nc3ncc(Cl)c(-c4c[nH]c5ccccc45)n3)C2)cc1 (stereo unspecified)
% of control [2]: 90%

Compound: CN1Cc2nccc(-c3cn(C)nc3-c3ccc(F)cc3)c2C1=O
% of inhibition [3]: 7%

Compound: O=C(NOC[C@H](O)CO)c1ccc(F)c(F)c1Nc1ccc(I)cc1F
% of control [5]: 79%

Compound: CCC(=O)N1CCN(c2ccc(-n3c(=O)ccc4cnc5ccc(-c6cnc7ccccc7c6)cc5c43)cc2C(F)(F)F)CC1
% of control [6]: 93%

Continued, values first:

% of control [1]: 100%
Compound: CCN(CC)CCCCNc1ncc2cc(-c3cc(OC)cc(OC)c3)c(NC(=O)NC(C)(C)C)nc2n1

% of inhibition [4]: 1.51%
Compound: CC[C@@H]1[C@H](F)C(=O)N[C@@H]1COc1nccc2cc(C(N)=O)c(OC)cc12 [ZIMLOVISERTIB]
